The subject of this assay is eosinophils. In words: Eosinophils in lung parenchyma and BALF after in vivo treatment (flow cytometry). Details: species or system mouse. The protocol:
Mice and in vivo ILC activation. C57Bl/6J mice were purchased from the Jackson Laboratory. Nmur1-LacZ reporter mice with a LacZ cassette knocked into the Nmur1 locus were rederived from Nmur1^tm1.1(KOMP)Vleg sperm obtained from the trans-NIH Knock-Out Mouse Project (KOMP) Repository. Mice were housed under specific-pathogen-free conditions. For experiments, mice were matched for sex and age, and most mice were 6-10 weeks old. […] The total administered volume was 20 μl for all conditions. Mice were randomly assigned to treatment groups after matching for sex and age. […] Mice were treated intranasally with 10 μg HDM on day 0, 7, 8, and 9, prior to sacrifice on day 10. All experiments were conducted in accordance with animal protocols approved by the Harvard Medical Area Standing Committee on Animals or BWH IACUC.
Flow cytometry. […] Cells were stained on ice with antibodies for surface molecules and the live/dead marker 7AAD and analyzed on a LSRFortessa (BD Biosciences). […]
Lung analysis. […] BALF was centrifuged, and the supernatant was used for analyzing cytokine levels and the cell pellet was resuspended, counted, and used for flow cytometry. […] Where indicated, cells were diluted in 10% Trypan Blue and viable cells counted using a hemocytometer. […]

Entries after “also recorded” stand apart in the source; their conditions may differ. Where no end group is shown, it is not given here.

With “Neuromedin U (FRVDEEFQSPFASQSRGYFLFRPRN-NH2; listed as Homo sapiens) [NMU, neuropeptide ligand of Nmur1 (US Biological)]”, the “eosinophils in BALF” value (intranasal daily for 3 days (500 ng IL-25, 20 μg NMU)) was “only a mild increase; also recorded: small increase”. The “eosinophils in lung parenchyma” value (intranasal daily for 3 days (500 ng IL-25, 20 μg NMU; FIG. 11: 250 ng IL-33, 10 μg NMU)) is “did not increase”.

(Values after patent publication US12161694B2, “Methods and compositions for regulating innate lymphoid cell inflammatory responses” (The Broad Institute, Inc., priority 2017, dated 2024).)
